Measurements taken from patent publication US20120010253A1, “Fungicidal compositions comprising Fluopyram and Metrafenone” (BASF SE, priority 2009, published 2012).

Columns and labels:
Botrytis cinerea = experiment: Activity against the grey mold Botrytis cinerea in the microtiter plate test; format: cell-based; conditions: MTP, 405 nm, 7 days after inoculation
Method: The active substances were formulated separately as a stock solution in dimethyl sulfoxide (DMSO) at a concentration of 10 000 ppm. Use Example 1—Activity Against the Grey Mold Botrytis cinerea in the Microtiter Plate Test The stock solutions were mixed according to the ratio, pipetted onto a micro titer plate (MTP) and diluted with water to the stated concentrations. A spore suspension of Botrci cinerea in an aqueous biomalt solution was then added. The plates were placed in a water vapor-saturated chamber at a temperature of 18° C. Using an absorption photometer, the MTPs were measured at 405 nm 7 days after the inoculation. The measured parameters were compared to the growth of the active compound-free control variant (100%) and the fungus-free and active compound-free blank value to determine the relative growth in % of the pathogens in the respective active compounds. These percentages were converted into efficacies. The expected efficacies of active compound mixtures were determined using Colby's formula [R. S. Colby, “Calculating synergistic and antagonistic responses of herbicide combinations”, Weeds 15, 20-22 (1967)] and compared with the observed efficacies.

Pyrenophora teres = experiment: Activity against Pyrenophora teres (net blotch on barley) in the microtiter plate test; format: cell-based; conditions: MTP, 405 nm, 7 days after inoculation
Method: The active substances were formulated separately as a stock solution in dimethyl sulfoxide (DMSO) at a concentration of 10 000 ppm. Use Example 2—Activity Against Pyrenophora teres (Net Blotch on Barley) in the Microtiter Plate Test The stock solutions were mixed according to the ratio, pipetted onto a micro titer plate (MTP) and diluted with water to the stated concentrations. A spore suspension of Pyrenophora teres in an aqueous biomalt solution was then added. The plates were placed in a water vapor-saturated chamber at a temperature of 18° C. Using an absorption photometer, the MTPs were measured at 405 nm 7 days after the inoculation. The measured parameters were compared to the growth of the active compound-free control variant (100%) and the fungus-free and active compound-free blank value to determine the relative growth in % of the pathogens in the respective active compounds. These percentages were converted into efficacies. The expected efficacies of active compound mixtures were determined using Colby's formula [R. S. Colby, “Calculating synergistic and antagonistic responses of herbicide combinations”, Weeds 15, 20-22 (1967)] and compared with the observed efficacies.

`O=C(NCCc1ncc(C(F)(F)F)cc1Cl)c1ccccc1C(F)(F)F` [Fluopyram] was tested, and the “Observed efficacy (%)” value (Botrytis cinerea; 0.25 ppm) was 18%, the “Observed efficacy (%)” value (Pyrenophora teres; 0.063 ppm) was 16% and the “Observed efficacy (%)” value (Pyrenophora teres; 0.25 ppm) was 60%.
With `COc1cc(C)c(C(=O)c2c(OC)ccc(Br)c2C)c(OC)c1OC` [Metrafenon, Metrafenone] the “Observed efficacy (%)” value (Botrytis cinerea; 16 ppm) was 10%, the “Observed efficacy (%)” value (Pyrenophora teres; 0.063 ppm) was 3% and the “Observed efficacy (%)” value (Pyrenophora teres; 1 ppm) was 18%.
